# Tested on: patients suffering from venous insufficiency from minor to severe
# Assay: QoL survey (CIVIQ-20) after 3 or 4 treatments with diluted polidocanol
# Format: in vivo, human
# Protocol: A commercially available polidocanol solution (Atossisclerol®) was diluted to 0.05% with a physiological saline solution. A 1.4% sodium bicarbonate solution was then added in order to obtain a final concentration of 0.06%. The patients, 80% of which were female between 18 and 82 years of age suffering from venous insufficiency from minor to severe, were subjected to treatment after obtaining their free and informed consent.
# Before the treatment, about 100 patients were subjected to a survey in order to assess their quality of life and to evaluate possible variations of the phlogistic/inflammatory overall state, of the venous microcirculation and circulation functionality, and also, more in general, of the skin trophism.
# The long term systemic effects were evaluated via a survey given to patients after 3 or 4 treatments with diluted polidocanol.
# In particular, they were asked to fill out a survey (CIVIQ-20) according to the criteria defined in Launois R. et al “Construction and validation of a quality of life questionnaire in chronic lower limb venous insufficiency (CIVIQ), Qual. Life Res., 1996, 5(6):539-554.
# The survey contained the questions summarized hereinbelow, with answers indexed with values from 0 to 4 (0 if the feeling of discomfort described by the question was not applicable and from 1 to 4 if it was applicable with increasing intensity). Hereinbelow are collected the activities which turned out to be improved after the treatment: • 1) During the last 4 weeks have you felt pain in the hips or legs and with what intensity? In 14% of cases a decrease in hip pain was observed after treatment with polidocanol according to the invention. • 2) During the last 4 weeks have you had troubles in the routine work activities, due to troubles with the lower limbs? In 75% cases the patients could note a better condition during routine work activity • 3) During the last 4 weeks have you had troubles sleeping due to troubles with your legs? With what frequency? 37% better sleeping conditions. No troubles. • 4) During the last 4 weeks have you had troubles in the following activities due to troubles with your legs? • a. Remaining standing for a long time. Improves in 87% • b. Climbing several flights of stairs. • c. Crouching kneeling down. Improves • d. Walking at a brisk pace. • e. Traveling by car, bus, plane. Improves in 85% • f. Performing housekeeping tasks (ironing, walking around in the kitchen, etc.). Improves in 85% • g. Going out at night. Improves in 85% • h. Playing sports • 5) Given that troubles with the legs can also affect moods, it was asked if during the last 4 weeks they had noticed troubles such as: • a. Nervousness • b. Quick fatigue • c. Feeling of oppression • d. Excessive caution • e. Embarrassment in showing off the legs. Improves in 90% • f. Irritability • g. Feeling of being handicapped • h. Morning fatigue. Improves in 95% • i. Not feeling like going out. Improves in 75%.
substance,measurement,setting,value
Polidocanol [diluted polidocanol],cases with decrease in hip pain,"CIVIQ-20 question 1, after 3 or 4 treatments",14%
same,cases with better condition during routine work activity,CIVIQ-20 question 2,75%
same,better sleeping conditions,CIVIQ-20 question 3,37%
same,"Remaining standing for a long time, improves",CIVIQ-20 question 4a,87%
same,Crouching kneeling down,CIVIQ-20 question 4c,Improves
same,"Traveling by car, bus, plane, improves",CIVIQ-20 question 4e,85%
same,"Performing housekeeping tasks, improves",CIVIQ-20 question 4f,85%
same,"Going out at night, improves",CIVIQ-20 question 4g,85%
same,"Embarrassment in showing off the legs, improves",CIVIQ-20 question 5e,90%
same,"Not feeling like going out, improves",CIVIQ-20 question 5i,75%
same,"Morning fatigue, improves",CIVIQ-20 question 5h,95%
same,cases with improved quality of life overall,answers after vs before treatment,87%

# — patent US12016831B2, “Polidocanol for use as immunomodulating agent” (priority 2018, dated 2024)
